For experiment [1], the system named is Z-138 cells. Nature of the experiment: Z-138 long term proliferation assay (Cell Titer Glo). The format is cell-based. To be noted: Homo sapiens, 192 h; Z-138 cells, cell viability, day 8; read-out: PRMT5 Z138 GI50 Day 8 μM. The procedure: A compound source plate was prepared by performing ten-point 3-fold dilution in DMSO, such that the final top concentration of the compound was 10 μM, and DMSO was 0.3%. The total volume of compounds added was 20 μL. The cells were incubated for 96 h at 37° C., 5% CO2. […] The cells were re-treated with the compounds and incubated for an additional four days. Cell viability was measured on both day 4 and day 8, by adding 25 μL of Cell Titer Glo reagent to an equal volume of cell suspension. Luminescence was read on a PerkinElmer Victor3 multiplate reader. The concentration of compound inhibiting cell viability by 50% was determined using a 4-parameter, variable slope fit of the normalized dose response curves.
(In general: Cellular ATP, detected with luciferase, serves as a proxy for viable cell number.)

Experiment [2] addresses T1, PRMT5/MEP50 (Homo sapiens, UniProt O14744).
T1 construct: Full-length human PRMT5 (NP_006100)
Nature of the experiment: PRMT5/MEP50 enzyme assay on peptide substrates (3H-SAM Flashplate). The format is biochemical. To be noted: PRMT5/MEP50 10 nM, H4 1-15aa peptide 100 nM, 3H-SAM 1 μM. The text has this:
General materials like S-adenocylmethionine (SAM), S-adenosylhomocysteine (SAH), Tris-HCl, DTT, […] (BSA) and Tween-20 were purchased from Sigma-Aldrich. 3H-SAM and 384-well streptavidin Flashplates were purchased from Perkin Elmer. Substrates that were used were Peptide representative of human Histone 4 residues 1-15 which was purchased from Rockland antibodies and assays.
PRMT5/MEP50 Enzyme assay on Peptide Substrates.
The assays were all performed in a buffer consisting of 50 mMTris-HCl, pH 8, 1 mM DTT, 0.01% BSA, 0.01% Tween-20, prepared on the day of use. Test compounds were diluted 3-fold in assay buffer (final DMSO concentration of 1%) and added into a 384-well OptiPlate (PerkinElmer, #6007290). A cocktail (10 μL) of PRMT5/MEP50 enzyme and the peptide was added to the wells. The compounds were allowed to incubate with PRMT5/MEP50 for 30 min at room temperature, then 5 μL of ^3H-SAM was added to initiate the reaction. The final concentrations of the components were as follows: PRMT5/MEP50-10 nM, H4, 1-15aa peptide-100 nM, ^3H-SAM-1 μM. The assays were stopped by the addition of 1 mM SAH. 25 μL of the reaction from the 384-well OptiPlate was then transferred to a 384-well Flashplate and the biotinylated peptides were allowed to bind to the streptavidin surface for at least 1 h, before being washed twice with 50 mMTris-HCl, pH 8, 0.1% Tween-20. The plates were then read in a PerkinElmer Topcount plate reader to measure the quantity of ^3H-labeled peptide bound to the Flashplate surface measured as disintegrations per minute (dpm), also referred to as counts per minute (cpm).
The IC50 values were calculated using a 4-parameter variable slope fit algorithm (cpm—counts per minute, cmpd—signal in assay well, and cpmmax and cpmmin mare the respective minimum and maximum signal controls).

Each structure is given as a SMILES string.

T1 sequence (O14744 whole entry): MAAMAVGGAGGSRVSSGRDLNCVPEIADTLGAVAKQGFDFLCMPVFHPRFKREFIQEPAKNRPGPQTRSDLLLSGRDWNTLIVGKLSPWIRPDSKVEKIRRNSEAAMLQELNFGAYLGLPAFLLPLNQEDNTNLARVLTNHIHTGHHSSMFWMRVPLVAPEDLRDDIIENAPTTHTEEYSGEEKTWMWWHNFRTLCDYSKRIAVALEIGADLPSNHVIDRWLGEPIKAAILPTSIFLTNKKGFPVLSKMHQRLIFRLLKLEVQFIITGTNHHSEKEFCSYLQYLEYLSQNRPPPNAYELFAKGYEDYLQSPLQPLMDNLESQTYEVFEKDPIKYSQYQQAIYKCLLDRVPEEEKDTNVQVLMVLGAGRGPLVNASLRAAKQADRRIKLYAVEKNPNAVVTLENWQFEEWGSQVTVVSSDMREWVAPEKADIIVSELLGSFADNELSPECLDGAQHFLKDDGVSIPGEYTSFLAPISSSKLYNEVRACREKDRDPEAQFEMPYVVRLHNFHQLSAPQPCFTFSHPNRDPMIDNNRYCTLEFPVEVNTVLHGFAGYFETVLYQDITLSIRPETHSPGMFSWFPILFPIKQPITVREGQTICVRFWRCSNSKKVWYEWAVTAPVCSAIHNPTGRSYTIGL
T1 sequence (Q9BQA1 whole entry partner): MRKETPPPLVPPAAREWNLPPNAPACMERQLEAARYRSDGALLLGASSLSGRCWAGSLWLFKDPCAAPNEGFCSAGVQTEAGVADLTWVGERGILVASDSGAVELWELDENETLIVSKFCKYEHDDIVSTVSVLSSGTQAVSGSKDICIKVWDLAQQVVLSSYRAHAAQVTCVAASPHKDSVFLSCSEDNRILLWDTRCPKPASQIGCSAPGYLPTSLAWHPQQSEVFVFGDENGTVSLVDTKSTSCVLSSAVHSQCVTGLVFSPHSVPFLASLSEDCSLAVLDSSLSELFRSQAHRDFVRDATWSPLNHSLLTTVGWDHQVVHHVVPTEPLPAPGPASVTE

The GI50 is the concentration that inhibits growth by half. As usually defined, the IC50 is the midpoint of a concentration-inhibition curve. High values mean lower potency, low ones higher potency. `O=C(NC[C@H](O)CN1CCc2ccccc2C1)c1cn2nc(C(F)(F)F)ccc2n1` [Example 50, (S)—N-(3-(3,4-dihydroisoquinolin-2(1H)-yl)-2-hydroxypropyl)-6-(trifluoromethyl)imidazo[1,2-b]pyridazine-2-carboxamide]: the GI50 in experiment [1] lay in the range of 1000 to 5000 nM. For the same compound, in experiment [2], the IC50 was in the range of 1000 to 5000 nM.
Turning to `Cn1cc(-c2cn3cc(C(=O)NC[C@H](O)CN4CCc5ccccc5C4)nc3cn2)ccc1=O` [Example 51, (S)—N-(3-(3,4-dihydroisoquinolin-2(1H)-yl)-2-hydroxypropyl)-6-(1-methyl-6-oxo-1,6-dihydropyridin-3-yl)imidazo[1,2-a]pyrazine-2-carboxamide], the GI50 in experiment [1] lay in the range of 10 to 1000 nM. The compound further had an IC50 in experiment [2] of 10 to 1000 nM.
With `CC(=O)N1CCC(c2cn3cc(C(=O)NC[C@H](O)CN4CCc5ccccc5C4)nc3cn2)CC1` [Example 52, (S)-6-(1-acetylpiperidin-4-yl)-N-(3-(3,4-dihydroisoquinolin-2(1H)-yl)-2-hydroxypropyl)imidazo[1,2-a]pyrazine-2-carboxamide], the GI50 in experiment [1] was in the range of 10 to 1000 nM. Also, the concentration for half-maximal inhibition (IC50) in experiment [2] was in the range of 10 to 1000 nM.
For the compound `O=C(NC[C@H](O)CN1CCc2ccccc2C1)c1cn2cc(C(F)(F)F)ncc2n1` [Example 53, (S)—N-(3-(3,4-dihydroisoquinolin-2(1H)-yl)-2-hydroxypropyl)-6-(trifluoromethyl)imidazo[1,2-a]pyrazine-2-carboxamide], the GI50 in experiment [1] was in the range of 1000 to 5000 nM. Also, the IC50 in experiment [2] lay within 10 to 1000 nM.
The corresponding values for `Cc1c(C(=O)NC[C@H](O)CN2CCc3ccccc3C2)nc2ccc(C(F)(F)F)nn12` [Example 54, (S)—N-(3-(3,4-dihydroisoquinolin-2(1H)-yl)-2-hydroxypropyl)-3-methyl-6-(trifluoromethyl)imidazo[1,2-b]pyridazine-2-carboxamide] are 1000 to 5000 nM and 1000 to 5000 nM.
The corresponding values for `Cc1cn2c(C)c(C(=O)NC[C@H](O)CN3CCc4ccccc4C3)nc2cn1` [Example 55, (S)—N-(3-(3,4-dihydroisoquinolin-2(1H)-yl)-2-hydroxypropyl)-3,6-dimethylimidazo[1,2-a]pyrazine-2-carboxamide] are 1000 to 5000 nM and 1000 to 5000 nM.
The corresponding values for `Cc1ccc2nc(C(=O)NC[C@H](O)CN3CCc4ccccc4C3)cn2n1` [Example 56, (S)—N-(3-(3,4-dihydroisoquinolin-2(1H)-yl)-2-hydroxypropyl)-6-methylimidazo[1,2-b]pyridazine-2-carboxamide] are above 5000 nM and 1000 to 5000 nM.
Turning to `Cc1cn2cc(C(=O)NC[C@H](O)CN3CCc4ccccc4C3)nc2cn1` [Example 57], in experiment [1], the GI50 is 1000 to 5000 nM. This compound yielded an IC50 in experiment [2] of 1000 to 5000 nM.
With `O=C(NC[C@H](O)CN1CCc2ccccc2C1)c1cn2cc(N3CC(F)(F)C3)ncc2n1` [Example 58, (S)-6-(3,3-difluoroazetidin-1-yl)-N-(3-(3,4-dihydroisoquinolin-2(1H)-yl)-2-hydroxypropyl)imidazo[1,2-a]pyrazine-2-carboxamide], in experiment [1], the GI50 fell in the range of 1000 to 5000 nM. The compound also came in with an IC50 in experiment [2] of 1000 to 5000 nM.
As to `O=C(NC[C@H](O)CN1CCc2ccccc2C1)c1cn2cc(N3CC(F)(F)C3)ccc2n1` [Example 59, (S)-6-(3,3-difluoroazetidin-1-yl)-N-(3-(3,4-dihydroisoquinolin-2(1H)-yl)-2-hydroxypropyl)imidazo[1,2-a]pyridine-2-carboxamide], the GI50 in experiment [1] is 1000 to 5000 nM. The compound further displayed an IC50 in experiment [2] of 1000 to 5000 nM.
As to `O=C(NC[C@H](O)CN1CCc2ccccc2C1)c1cc2nc(C(F)(F)F)ccn2n1` [Example 60, (S)—N-(3-(3,4-dihydroisoquinolin-2(1H)-yl)-2-hydroxypropyl)-5-(trifluoromethyl)pyrazolo[1,5-a]pyrimidine-2-carboxamide], the GI50 in experiment [1] was 1000 to 5000 nM. For the same compound, the IC50 in experiment [2] was in the range of 1000 to 5000 nM.
As for `O=C(NC[C@H](O)CN1CCc2ccccc2C1)c1cn2cc(C3(O)COC3)ccc2n1` [Example 61, (S)—N-(3-(3,4-dihydroisoquinolin-2(1H)-yl)-2-hydroxypropyl)-6-(3-hydroxyoxetan-3-yl)imidazo[1,2-a]pyridine-2-carboxamide], in experiment [1], the GI50 is 1000 to 5000 nM. In experiment [2], this compound showed an IC50 of 1000 to 5000 nM.
For `Cn1cc(-c2ccn3nc(C(=O)NC[C@H](O)CN4CCc5ccccc5C4)cc3n2)cn1` [Example 62, (S)—N-(3-(3,4-dihydroisoquinolin-2(1H)-yl)-2-hydroxypropyl)-5-(1-methyl-1H-pyrazol-4-yl)pyrazolo[1,5-a]pyrimidine-2-carboxamide], the GI50 in experiment [1] was in the range of 1000 to 5000 nM. Moreover, the half-maximal inhibitory concentration (IC50) in experiment [2] is 1000 to 5000 nM.
With `Cn1ccc(-c2ccn3nc(C(=O)NC[C@H](O)CN4CCc5ccccc5C4)cc3n2)cc1=O` [Example 63, (S)—N-(3-(3,4-dihydroisoquinolin-2(1H)-yl)-2-hydroxypropyl)-5-(1-methyl-2-oxo-1,2-dihydropyridin-4-yl)pyrazolo[1,5-a]pyrimidine-2-carboxamide], in experiment [1], the GI50 is 1000 to 5000 nM. Besides, the IC50 in experiment [2] lay within 10 to 1000 nM.
On to `Cc1c(C(=O)NC[C@H](O)CN2CCc3ccccc3C2)nc2cnc(-c3cnn(C)c3)cn12` [Example 64, (S)—N-(3-(3,4-dihydroisoquinolin-2(1H)-yl)-2-hydroxypropyl)-3-methyl-6-(1-methyl-1H-pyrazol-4-yl)imidazo[1,2-a]pyrazine-2-carboxamide], for which the GI50 in experiment [1] was 10 to 1000 nM. The same compound returned an IC50 in experiment [2] of 10 to 1000 nM.
For the compound `Cc1c(C(=O)NC[C@H](O)CN2CCc3ccccc3C2)nc2cnc(-c3ccn(C)c(=O)c3)cn12` [Example 65, (S)—N-(3-(3,4-dihydroisoquinolin-2(1H)-yl)-2-hydroxypropyl)-3-methyl-6-(1-methyl-2-oxo-1,2-dihydropyridin-4-yl)imidazo[1,2-a]pyrazine-2-carboxamide], the GI50 in experiment [1] lay in the range of 10 to 1000 nM. Besides, in experiment [2], the IC50 fell in the range of 10 to 1000 nM.
On to `Cc1c(C(=O)NC[C@H](O)CN2CCc3ccccc3C2)nc2cnc(-c3ccc(=O)n(C)c3)cn12` [Example 66, (S)—N-(3-(3,4-dihydroisoquinolin-2(1H)-yl)-2-hydroxypropyl)-3-methyl-6-(1-methyl-6-oxo-1,6-dihydropyridin-3-yl)imidazo[1,2-a]pyrazine-2-carboxamide], for which the GI50 in experiment [1] lay in the range of 10 to 1000 nM. This compound had an IC50 in experiment [2] of 10 to 1000 nM.
In the case of `Cc1ccn2nc(C(=O)NC[C@H](O)CN3CCc4ccccc4C3)c(F)c2n1` [Example 67], the GI50 in experiment [1] was above 5000 nM. The compound further registered an IC50 in experiment [2] of 1000 to 5000 nM.
The corresponding values for `O=C(NC[C@H](O)CN1CCc2ccccc2C1)c1nn2ccc(C(F)(F)F)nc2c1F` [Example 68, (S)—N-(3-(3,4-dihydroisoquinolin-2(1H)-yl)-2-hydroxypropyl)-3-fluoro-5-(trifluoromethyl)pyrazolo[1,5-a]pyrimidine-2-carboxamide] are above 5000 nM and above 5000 nM.
The like results for `O=C(NC[C@H](O)CN1CCc2ccccc2C1)c1cn2cc(N3CCC(F)C3)ccc2n1` (stereo partly drawn) [Example 70, N—((S)-3-(3,4-dihydroisoquinolin-2(1H)-yl)-2-hydroxypropyl)-6-(3-fluoropyrrolidin-1-yl)imidazo[1,2-a]pyridine-2-carboxamide] were, in that order, 1000 to 5000 nM and 10 to 1000 nM.
The corresponding values for `CN1CCN(c2ccc3nc(C(=O)NC[C@H](O)CN4CCc5ccccc5C4)cn3c2)CC1` [Example 71, (S)—N-(3-(3,4-dihydroisoquinolin-2(1H)-yl)-2-hydroxypropyl)-6-(4-methylpiperazin-1-yl)imidazo[1,2-a]pyridine-2-carboxamide] are 1000 to 5000 nM and 10 to 1000 nM.
For `O=C(NC[C@H](O)CN1CCc2ccccc2C1)c1cn2cc(N3CCOCC3)ccc2n1` [Example 72, (S)—N-(3-(3,4-dihydroisoquinolin-2(1H)-yl)-2-hydroxypropyl)-6-morpholinoimidazo[1,2-a]pyridine-2-carboxamide], the GI50 in experiment [1] was in the range of 1000 to 5000 nM. Also, the 50% inhibitory concentration (IC50) in experiment [2] is 10 to 1000 nM.
Consider `N#Cc1ccc(-c2cn3cc(C(=O)NC[C@H](O)CN4CCc5ccccc5C4)nc3cn2)cc1` [Example 74, (S)-6-(4-cyanophenyl)-N-(3-(3,4-dihydroisoquinolin-2(1H)-yl)-2-hydroxypropyl)imidazo[1,2-a]pyrazine-2-carboxamide], for which the GI50 in experiment [1] fell in the range of 10 to 1000 nM. Further, the IC50 in experiment [2] lay in the range of 10 to 1000 nM.

The values above are taken from patent publication US11459338B2, “Heterocyclic compounds as PRMT5 inhibitors” (JUBILANT EPISCRIBE LLC, priority 2018, dated 2022).
